This is an account of results in US9951060B2, “2-acylaminothiazole derivative or salt thereof” (ASTELLAS PHARMA INC., priority 2014, dated 2018).

Data set [1] has as its target T1, human muscarinic M3 receptor (Homo sapiens, UniProt P20309). In words: Test Example 1: muscarinic M3 receptor positive allosteric modulator activity (shift of carbachol concentration-response curve, intracellular Ca2+, FLIPR). Particulars: carbachol EC50 without / with test substance, CHO-K1 cells expressing human M3.
Description: (§1) Test Example 1: Evaluation of Muscarinic M3 Receptor Positive Allosteric Modulator Activity
(§2) a) Construction of Vector Expressing Human Muscarinic M3 Receptor
(§3) A human muscarinic M3 receptor gene (GenBank Accession No.: NM_000740.2) was introduced into an expression vector pcDNA3.1™ (Life Technologies).
(§4) b) Construction of Cells Stably Expressing Human Muscarinic M3 Receptor
(§5) A vector expressing a human muscarinic M3 receptor was introduced into a CHO—K1 cell (ATCC No.: CCL-61). The introduction was carried out according to the attached instructions, using a transfection reagent, Lipofectoamine (registered trademark) 2000 Reagent (Life Technologies). The cells were incubated in an alpha Modified Eagle Minimum Essential Medium (α-MEM) including 2 mM glutamine, 10% fetal bovine serum, and 2.0 mg/mL Geneticin (registered trademark) (Life Technologies) for 4 weeks to acquire a drug-resistant clone.
(§6) c) Measurement of Intracellular Ca^2+ Concentration
(§7) The cells obtained in b) above were suspended in an α-MEM including 2 mM glutamine, 10% fetal bovine serum, and 0.2 mg/mL Geneticin (registered trademark) to the amount from 1.2 to 1.5×10^4 cells/well the day before the experiment, dispensed into a 384-well plate (Model No. 355962, BD Biosciences), and incubated overnight at 37° C. and 5% CO2. The medium was replaced with a loading buffer (an assay buffer (Hank's balanced salt solution (HBSS), 1 g/L BSA, 20 mM HEPES (pH 7.5), and 2.5 mM probenecid), including 3.1 μM Fluo 4-AM (Dojindo Laboratories) and incubated for about 2 hours at room temperature. Thereafter, the cells were washed with a plate washer ELx405™ (BIO-TEK Instrument, Inc.) set with the assay buffer, and set in an intracellular Ca^2+ concentration measuring system (FLIPR^tetra (registered trademark), Molecular Device Co.). The test substances (final concentration of 1 μM or 10 μM) and carbachol (Sigma, final concentration of 0.0024 nM to 10 μM) which had each been dissolved in the assay buffer in advance were set in a FLIPR^tetra (registered trademark). The test substances were added to the cells in the device and after about 5 minutes, carbachol was added to the cells. An increase rate of the intracellular Ca^2+ concentration by carbachol was measured (excitement wavelength of 470 nm to 495 nm and a fluorescence wavelength of 515 nm to 575 nm).
(§8) For the muscarinic M3 receptor-positive allosteric modulator activity, a shift toward a lower concentration side of a carbachol concentration-response curve by the test substance was used as an index. […] For example, when the EC50 value of carbachol in the absence of the test substance was 0.1 μM and the EC50 value of carbachol in the presence of the test substance was 0.01 μM, the value of the muscarinic M3 receptor-positive allosteric modulator activity becomes 10, showing that the test substance causes a 10-fold shift in the EC50 value toward to the low concentration side.
In data set [2] the target is T2, human c-Mpl-introduced Ba/F3 cell (Homo sapiens, UniProt P40238).
T2 construct: expressed in transfected cells
T2 sequence (P40238 26-635): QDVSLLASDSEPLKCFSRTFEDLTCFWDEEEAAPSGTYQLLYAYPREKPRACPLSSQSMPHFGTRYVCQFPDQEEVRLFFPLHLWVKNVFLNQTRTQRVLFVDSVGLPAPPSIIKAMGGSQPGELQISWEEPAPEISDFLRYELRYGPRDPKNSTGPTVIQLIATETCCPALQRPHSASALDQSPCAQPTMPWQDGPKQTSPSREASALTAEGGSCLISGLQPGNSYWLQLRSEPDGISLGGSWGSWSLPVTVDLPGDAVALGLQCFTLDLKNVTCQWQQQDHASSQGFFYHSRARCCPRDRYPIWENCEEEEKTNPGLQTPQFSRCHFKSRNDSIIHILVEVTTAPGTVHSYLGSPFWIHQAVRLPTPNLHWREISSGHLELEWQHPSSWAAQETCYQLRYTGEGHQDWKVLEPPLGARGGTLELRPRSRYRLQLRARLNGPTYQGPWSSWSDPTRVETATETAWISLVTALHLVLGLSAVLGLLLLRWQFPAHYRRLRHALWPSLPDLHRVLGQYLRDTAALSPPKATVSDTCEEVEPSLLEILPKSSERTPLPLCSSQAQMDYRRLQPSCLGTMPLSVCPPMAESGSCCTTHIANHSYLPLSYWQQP
In words: Test Example 2: human c-Mpl-introduced Ba/F3 cell proliferative activity. In kind it is cell-based. Particulars: concentration exhibiting 30% proliferation; 100% = positive control (Example 315 of Patent Document 1) at 1 μM. The procedure:
Test Example 2: Evaluation of Human c-Mpl-Introduced Ba/F3 Cell Proliferative Activity
The human c-Mpl-introduced Ba/F3 cell proliferation action was measured by the following method.
As a positive control, 1-(5-{[4-(4-chlorothiophen-2-yl)-5-{[(2R)-2-methylpyrrolidin-1-yl]methyl}-1,3-thiazol-2-yl]carbamoyl}-3-fluoropyridin-2-yl)piperidine-4-carboxylic acid hydrochloride disclosed as Example 315 in Patent Document 1, represented by the formula (A1) above, was used. Further, it is known that the compound has a good human c-Mpl-introduced Ba/F3 cell proliferative activity as disclosed in Table 1 in Patent Document 1.
a) Construction of Vector Expressing Human c-Mpl Receptor
A human c-Mpl receptor gene (GenBank Accession No.: M90102.1) was transfected into an expression vector pEF-BOS (Nucleic Acids Research, 18: pp 5322 (1990)).
b) Construction of Cell Stably Expressing Human c-Mpl Receptor
A vector expressing a human c-Mpl receptor was introduced into a Ba/F3 cell (RIKEN BRC: RCB0805). For the introduction, an electroporation method was used. pEF-BOS-c-mpl (10 μg), pSV2bsr (1 μg, Kaken Pharmaceutical Co., Ltd.) and 1×10^7 of Ba/F3 cells were put into cuvettes with a gap width of 0.4 cm and electroporated under a condition of 1.5 kV (25 μF) in a Gene Pulser (registered trademark) (BioRad). The cells were incubated in an RPMI-1640 medium supplemented with a 0.5% WEHI conditioned medium (BD Biosciences) and 10% fetal bovine serum for 3 days, and thereafter, and the cells were incubated for 30 days in an RPMI-1640 medium, to which 10 μg/mL blasticidin had been further added, thereby acquiring a drug-resistant clone.
c) Measurement of Cell Proliferative Activity
The cells obtained in b) above were dispensed into an RPMI-1640 medium supplemented with a 0.5% WEHI conditioned medium and 10% fetal bovine serum, and used. The day before the experiment, the test substances (final concentration of 100 nM to 10 μM) which had been dissolved in a medium for assay (an RPMI-1640 medium supplemented with 10% fetal bovine serum) were added to a 384-well plate (Model No. 781185, Greiner bio-one). The cells after the medium had been replaced with the medium for assay were dispensed to a 384-well plate to which the test substance had been added, to 1×10^4 cells/well, and incubated overnight at 37° C. and 5% CO2. On the experiment day, a solution of a Cell counting kit (Dojindo Laboratories) was added to each well of the 384-well plate, and the cells were incubated for about 5 hours at 37° C. and 5% CO2. Thereafter, the absorbance (an absorbance wavelength of 450 nm) of each well was measured using Safire^2 (registered trademark) (TECAN), and used as an index for the number of cells. Further, as a negative control, a well to which the test substances had not been added was prepared.
By taking the absorbance of the well to which the test substance had been not added as 0% and taking the absorbance in a case where the positive control had been added to a final concentration of 1 μM as 100%, a cell proliferation rate (%) was calculated from the absorbance of the well to which the test substance had been added.

Data set [3] addresses T1, human muscarinic M3 receptor.
Description: as §1, §2, §3, §4, §5, §6, §7, §8
In data set [4] the target is T2, human c-Mpl-introduced Ba/F3 cell. Particulars: disclosed in Table 1 of Patent Document 1 (WO 2005/007651); cited from earlier work.

SMILES strings stand for the structures. Like-named read-outs stand apart in the source and are kept apart here.

T1 sequence (P20309 whole entry): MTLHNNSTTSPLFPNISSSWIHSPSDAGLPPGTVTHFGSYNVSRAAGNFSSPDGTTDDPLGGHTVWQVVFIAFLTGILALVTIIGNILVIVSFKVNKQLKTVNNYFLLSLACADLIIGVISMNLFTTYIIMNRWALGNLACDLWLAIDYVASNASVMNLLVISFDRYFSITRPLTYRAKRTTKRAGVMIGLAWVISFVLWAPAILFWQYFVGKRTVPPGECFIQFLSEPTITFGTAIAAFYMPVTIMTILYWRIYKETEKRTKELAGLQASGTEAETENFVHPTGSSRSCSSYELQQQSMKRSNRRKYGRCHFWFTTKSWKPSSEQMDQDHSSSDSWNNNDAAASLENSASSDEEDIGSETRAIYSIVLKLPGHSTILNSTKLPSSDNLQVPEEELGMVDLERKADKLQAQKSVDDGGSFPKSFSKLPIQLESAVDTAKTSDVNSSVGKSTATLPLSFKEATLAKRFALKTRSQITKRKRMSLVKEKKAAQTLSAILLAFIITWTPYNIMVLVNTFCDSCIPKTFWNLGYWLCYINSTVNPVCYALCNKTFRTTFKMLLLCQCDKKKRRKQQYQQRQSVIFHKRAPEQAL

For `Cc1cc(-c2nc(NC(=O)c3cnc(N4CCN(CCC(=O)[O-])CC4)cn3)sc2CN2CCCC[C@H]2C)cc(C(F)(F)F)c1.[Na+]` [Example 4, sodium 3-(4-{5-[(5-{[(2R)-2-methylpiperidin-1-yl]methyl}-4-[3-methyl-5-(trifluoromethyl)phenyl]-1,3-thiazol-2-yl)carbamoyl]pyrazin-2-yl}piperazin-1-yl)propanoate], the “muscarinic M3 receptor-positive allosteric modulator activity, 1 μM (-fold shift)” value in data set [1] (test substance 1 μM) is given as 25 -fold shift. The “muscarinic M3 receptor-positive allosteric modulator activity, 10 μM (-fold shift)” value in data set [1] (test substance 10 μM) is on record as 200 -fold shift. Besides, in data set [2], the “human c-Mpl-introduced Ba/F3 cell proliferative activity EC30” value was above 3 µM.
As for `CC(C)CN(C)Cc1sc(NC(=O)c2cnc(N3CCN(CCC(=O)O)CC3)cn2)nc1-c1cc(F)cc(C(F)(F)F)c1` [Example 107], in data set [3], the “muscarinic M3 receptor-positive allosteric modulator activity, 1 μM (-fold shift)” value is reported as 73 -fold shift and the “muscarinic M3 receptor-positive allosteric modulator activity, 10 μM (-fold shift)” value is given as 318 -fold shift. Also, in data set [2], the “human c-Mpl-introduced Ba/F3 cell proliferative activity EC30” value was above 10 µM.
For `CN(Cc1sc(NC(=O)c2cnc(N3CCN(CCC(=O)O)CC3)cn2)nc1-c1cc(F)cc(C(F)(F)F)c1)CC1CC1` [Example 108], in data set [3], the “muscarinic M3 receptor-positive allosteric modulator activity, 1 μM (-fold shift)” value is on record as 56 -fold shift and the “muscarinic M3 receptor-positive allosteric modulator activity, 10 μM (-fold shift)” value is 169 -fold shift. Also, the “human c-Mpl-introduced Ba/F3 cell proliferative activity EC30” value in data set [2] is above 10 µM.
In the case of `C[C@@H]1CC[C@@H](C)N1Cc1sc(NC(=O)c2cnc(N3CCN(CCC(=O)O)CC3)cn2)nc1-c1cc(C(F)(F)F)cs1` [Example 111], in data set [3], the “muscarinic M3 receptor-positive allosteric modulator activity, 1 μM (-fold shift)” value is 203 -fold shift and the “muscarinic M3 receptor-positive allosteric modulator activity, 10 μM (-fold shift)” value was 627 -fold shift. Besides, the “human c-Mpl-introduced Ba/F3 cell proliferative activity EC30” value in data set [2] was 5 µM.
Taken in the same sequence, the figures for `CCN(CC)Cc1sc(NC(=O)c2cnc(N3CCN(CC(=O)O)C[C@H]3C)cn2)nc1-c1cc(F)cc(C(F)(F)F)c1` [Example 118] were 57 -fold shift, 167 -fold shift and above 10 µM.
In the case of `C[C@@H]1CC[C@@H](C)N1Cc1sc(NC(=O)c2cnc(N3CCN(CCC(=O)O)[C@@H](C)C3)cn2)nc1-c1cc(Cl)cs1` [Example 126], in data set [3], the “muscarinic M3 receptor-positive allosteric modulator activity, 1 μM (-fold shift)” value is 79 -fold shift and the “muscarinic M3 receptor-positive allosteric modulator activity, 10 μM (-fold shift)” value was 318 -fold shift. The “human c-Mpl-introduced Ba/F3 cell proliferative activity EC30” value in data set [2] is above 10 µM.
The corresponding values for `C[C@H]1CN(c2cnc(C(=O)Nc3nc(-c4cc(Cl)cs4)c(CN(C)CC4CC4)s3)cn2)CCN1CCC(=O)O` [Example 128] are 73 -fold shift, 192 -fold shift and 8 µM.
The corresponding values for `C[C@@H]1CN(c2cnc(C(=O)Nc3nc(-c4cc(Cl)cs4)c(CN(C)CC4CC4)s3)cn2)CCN1CCC(=O)O` [Example 130] are 95 -fold shift, 151 -fold shift and above 10 µM.
The corresponding values for `C[C@@H]1CCCN1Cc1sc(NC(=O)c2cnc(N3CCN(CCC(=O)O)CC3)cn2)nc1-c1cc2ccccc2s1` [Example 132] are 15 -fold shift, 41 -fold shift and above 10 µM.
`C[C@@H]1CCCN1Cc1sc(NC(=O)c2cnc(N3CCC(C(=O)O)CC3)c(F)c2)nc1-c1cc(Cl)cs1.Cl` [Example 315, 1-(5-{[4-(4-chlorothiophen-2-yl)-5-{[(2R)-2-methylpyrrolidin-1-yl]methyl}-1,3-thiazol-2-yl]carbamoyl}-3-fluoropyridin-2-yl)piperidine-4-carboxylic acid hydrochloride]: in data set [4], the “EC30 value of c-Mpl-introduced Ba/F3 cell proliferation action” value is 0.0032 µM.
